Patent US20250205157A1, “TOPICAL RUXOLITINIB FOAM” (Incyte Corporation, priority 2023, published 2025)
Values belong to the molecule of their own block, whether it stands above or below them.

Legend:
[1] = Chemical stability of foam formulations by HPLC (assay % LC, total impurities); type: physicochemical; conditions: for chemical stability, in words: to 3 months, 25° C./60% RH and 40° C./75% RH
From the text: The protocol used for determining the purity was a liquid chromatography (LC) method. The LC method is provided below.
This method is for the determination of Ruxolitinib Phosphate in foam formulations that contain Ruxolitinib Phosphate as active pharmaceutical ingredient (API). The method is suitable for the determination of active content in stability screening samples. The method can also be used to estimate the level of major degradants of Ruxolitinib Phosphate.
Foam formulations contain about 0.5% Ruxolitinib base (API added as Ruxolitinib Phosphate)
Weigh accurately about 500 mg of sample into a tared 25 mL volumetric flask.
Equilibrate the chromatographic system with starting mobile phase composition until a stable baseline is obtained. The following gradient (Table 12) at a flow rate of 1.0-1.5 mL/min is used: […]
Using the instrument conditions, equilibrate the chromatographic system with mobile phase. Record the chromatograms of Ruxolitinib Phosphate peak for the standard and sample solutions. The retention time of principal peak in the HPLC chromatogram of the sample should correspond with the retention time of the principal peak produced by Ruxolitinib Phosphate Standard Solution. The retention time difference between sample and standard should not be more than 5%.

[2] = Microscopic examination of the foam samples (drug recrystallisation); type: physicochemical
[3] = tested on: alopecia; conditions: 8 mg and 12 mg BID orally; cited from earlier work
[4] = Minipig plasma concentrations / toxicokinetic evaluation after topical foam; conditions: topical application of foam formulations
[5] = Solubility of ruxolitinib phosphate in organic media; type: physicochemical; conditions: for Reported Solubility % w/w, ruxolitinib phosphate: ambient temperature
Method: Under pre-formulation studies, the solubility of ruxolitinib phosphate was evaluated in organic media over the course of three days at ambient temperature.

[6] = Solubility of ruxolitinib phosphate in ethanol-water solutions and hydroethanolic foamable carrier components; type: physicochemical
Method: Based on the good solubility of ruxolitinib phosphate in hydroethanolic mixtures, the solubility of ruxolitinib phosphate in a hydroethanolic base formulation was studied. Utilizing Method A (Materials and Methods), the formulations in Table 23 were prepared. […] PG was added as a penetration enhancer to facilitate better skin permeation of the API from application of the foam.

[7] = 1,3-Dimethyl-2-Imadolidinone (DMI) (neat)
[8] = Isopropyl Myristate (IPM) (neat)

impurities ([1]; 3-months, 25° C. and 40° C., method detection limit): < 0.05 % area
chemical stability, in words [1]: chemically stable
drug recrystallisation / solubility in the foam [2]: remained soluble in the foam formulation
SMILES: [2H]C1([2H])C([C@@H](CC#N)n2cc(-c3ncnc4[nH]ccc34)cn2)C([2H])([2H])C([2H])([2H])C1([2H])[2H] [Deuruxolitinib, (3R)-3-(2,2,3,3,4,4,5,5-D8) cyclopentyl-3-[4-(7H-pyrrolo[2,3-d]pyrimidin-4-yl)-1H-pyrazol-1-yl]propanenitrile]
clinical endpoint [3]: met the clinical endpoint
systemic exposure (plasma concentrations) [4]: did not indicate therapeutic relevant concentrations

Calculated Solubility, % w/w in base form [5, 7]: 0.168 % w/w
Reported Solubility % w/w, ruxolitinib phosphate [5, 7]: 0.22 % w/w
Calculated Solubility, % w/w in base form ([5]; Castor Oil (neat)): 0.028 % w/w
Reported Solubility % w/w, ruxolitinib phosphate ([5]; Castor Oil (neat)): 0.037 % w/w
Calculated Solubility, % w/w in base form ([5]; DIPA (neat)): <0.01 % w/w
Reported Solubility % w/w, ruxolitinib phosphate ([5]; DIPA (neat)): <0.01 % w/w
Calculated Solubility, % w/w in base form ([5]; Ethyl Oleate (neat)): <0.01 % w/w
Reported Solubility % w/w, ruxolitinib phosphate ([5]; Ethyl Oleate (neat)): <0.01 % w/w
Calculated Solubility, % w/w in base form ([5]; Etocas 35 (neat)): 0.729 % w/w
Reported Solubility % w/w, ruxolitinib phosphate ([5]; Etocas 35 (neat)): 0.962 % w/w
Calculated Solubility, % w/w in base form ([5]; GTCC (neat)): 0.015 % w/w
Reported Solubility % w/w, ruxolitinib phosphate ([5]; GTCC (neat)): 0.02 % w/w
Calculated Solubility, % w/w in base form [5, 8]: <0.01 % w/w
Reported Solubility % w/w, ruxolitinib phosphate [5, 8]: <0.01 % w/w
Calculated Solubility, % w/w in base form ([5]; Light Mineral Oil (LMO) (neat)): <0.01 % w/w
Reported Solubility % w/w, ruxolitinib phosphate ([5]; Light Mineral Oil (LMO) (neat)): <0.01 % w/w
Calculated Solubility, % w/w in base form ([5]; Octadodecabol (ODD) (neat)): 0.022 % w/w
Reported Solubility % w/w, ruxolitinib phosphate ([5]; Octadodecabol (ODD) (neat)): 0.029 % w/w
Calculated Solubility, % w/w in base form ([5]; Oleth-3 (neat)): 0.513 % w/w
Reported Solubility % w/w, ruxolitinib phosphate ([5]; Oleth-3 (neat)): 0.677 % w/w
Calculated Solubility, % w/w in base form ([5]; Oleyl alcohol (neat)): 0.052 % w/w
Reported Solubility % w/w, ruxolitinib phosphate ([5]; Oleyl alcohol (neat), no propellant): 0.068 % w/w
Calculated Solubility, % w/w in base form ([5]; PEG 300 (neat)): 1.169 % w/w
Reported Solubility % w/w, ruxolitinib phosphate ([5]; PEG 300 (neat)): 1.543 % w/w
Calculated Solubility, % w/w in base form ([5]; PEG400 (neat)): 0.846 % w/w
Reported Solubility % w/w, ruxolitinib phosphate ([5]; PEG400 (neat)): 1.117 % w/w
Calculated Solubility, % w/w in base form ([5]; Polysorabte 80 (neat)): 0.920 % w/w
Reported Solubility % w/w, ruxolitinib phosphate ([5]; Polysorabte 80 (neat)): 1.214 % w/w
Calculated Solubility, % w/w in base form ([5]; Polysorbate 20 (neat)): 0.957 % w/w
Reported Solubility % w/w, ruxolitinib phosphate ([5]; Polysorbate 20 (neat)): 1.263 % w/w
Calculated Solubility, % w/w in base form ([5]; Propylene Glycol (PG) (neat)): 1.651 % w/w
Reported Solubility % w/w, ruxolitinib phosphate ([5]; Propylene Glycol (PG) (neat)): 2.179 % w/w
Calculated Solubility, % w/w in base form ([5]; Span 20 (neat)): 0.877 % w/w
Reported Solubility % w/w, ruxolitinib phosphate ([5]; Span 20 (neat)): 1.157 % w/w
Calculated Solubility, % w/w in base form ([5]; Transcutol-P (neat)): 0.927 % w/w
Reported Solubility % w/w, ruxolitinib phosphate ([5]; Transcutol-P (neat)): 1.223 % w/w
solubility (loading level) in ethanol:water ([6]; mixtures of 60:40 or 40:60 ethanol:water): ~4 % on a free base basis (w/w)
SMILES: N#CC[C@H](C1CCCC1)n1cc(-c2ncnc3[nH]ccc23)cn1 [Ruxolitinib phosphate]
amount dissolved in hydroethanolic base ([6]; base having 60% ethanol with and without additional propylene glycol): approximately 3 % (w/w) on a free base basis

chemical stability, in words [1]: chemically stable
SMILES: N#CC[C@H](C1CCCC1)n1cc(-c2ncnc3[nH]ccc23)cn1 [Ruxolitinib]
systemic exposure (plasma concentrations) [4]: did not indicate therapeutic relevant concentrations
